From patent US6887713B2, “Bioactive chip mass spectrometry” (Intrinsic Bioprobes, Inc., priority 2000, dated 2005)

Target: streptavidin (Streptomyces avidinii, UniProt P22629)
Conditions: mixture of 10.0 μM Pep K and 10.0 μM Pep R, 60 s at 20 μl/min, then ~15 s running buffer; immobilized streptavidin
Procedure: A bioactive chip BC containing streptavidin-derivatized separation site SS was exposed for 60 s (at a flow rate of 20 μl/min) to a mixture containing 10.0 μM Pep K and 10.0 μM Pep R, after which a ˜15 s exposure to the running buffer followed. The separation site SS on the bioactive chip BC was then MALDI-TOF MS analyzed.
The fitting parameters are listed in the figure and were used with starting concentrations of [Pep K]=7 uM; [Pep K(ox)]=3 uM; and [Pep R & Pep R(ox)]=10 uM. A criterion was used in which the relative quantities of the individual species at the end of the run corresponded to the relative quantities estimated from the mass spectrum taken from the surface of the separation site SS.

Chain of streptavidin (P22629 25-183, species assumed): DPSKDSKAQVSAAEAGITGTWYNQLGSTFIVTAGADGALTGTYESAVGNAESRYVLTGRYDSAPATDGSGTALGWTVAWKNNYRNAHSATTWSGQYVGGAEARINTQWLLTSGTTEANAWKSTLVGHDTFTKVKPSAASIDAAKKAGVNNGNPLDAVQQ

SGTSFHPQWIMVGRVATNSP [PepR]
retention by / affinity for streptavidin (change in MALDI-TOF ion signal intensity ratio before vs after interaction): preferential retention
